# Laboratory results published in US4192799A, “Conjugates formed by reacting a prostaglandin mimic compound with a carrier molecule” (The Upjohn Company, priority 1977, dated 1980).
# Like-named read-outs stand apart in the source and are kept apart here.
# Assays:
# [1] = test system: antiserum raised against 9-deoxy-9-methylene PGF2 (KLH Conjugate); test: RIA cross-reactivity of antiserum raised against 9-deoxy-9-methylene PGF2, KLH conjugate; assay type: binding, Albino New Zealand rabbits; conditions: relative to PGE2; ng required to displace 50% of [3H]PGE2
# Protocol: (§1) Five milligrams of KLH-PGE2 mimic conjugate is added to 2.25 ml. of sterile saline (0.9%) and 2.25 ml. of Freund's complete adjuvant and blended. 1.0 ml. of this mixture is injected subcutaneously at 20-30 sites on the flanks of four Albino New Zealand rabbits of 2-4 kg. mass. Each rabbit receives a dose of about 1 mg. On the same day, 1.0 ml. of attenuated pertussis vaccine is injected intramuscularly at four sites on the hindquarters of each rabbit.
# (§2) A known amount of PGE-type compound in 0.1 ml. PBSG buffer at pH 7.4±0.2 and 0.1 ml. of the radiolabeled form of the same PGE-type compound (10,000 cpm/0.1 ml. PBSG) are introduced into a 12×75 mm. polypropylene tube. Antiserum (0.1 ml.) against the corresponding mimic is added at a dilution which will bind 50%±3% of the radiolabeled authentic PGE-type compound in the absence of competition from the unlabeled PGE-type compound. The tube is incubated for 1 hour at 25° and then 12-16 hours at 4°. Antibody bound and free fractions are separated with dextrancoated charcoal. Other separation techniques are acceptable.
# (§3) The data below show the cross-reactivity of antiserum raised against 9-deoxy-9-methylene PGF2 to various PGE-type compounds, relative to PGE2. Percent cross-reaction is defined as (ng. of PGE2 required to displace 50% of [^3 H] PGE2)/(ng. heterologous PG required to displace 50% of [^3 H] PGE2)×100.
# [2] = test system: antiserum raised against 9-deoxy-9-methylene PGF2 (BSA Conjugate); test: RIA cross-reactivity of antiserum raised against 9-deoxy-9-methylene PGF2, BSA conjugate; assay type: binding, Albino New Zealand rabbits; conditions: relative to PGE2; ng required to displace 50% of [3H]PGE2
# Protocol: as §1
# Antibodies against other PG mimics can be elicited by substituting equal amounts of other conjugates, such as those of preparations 1 through 9, for the KLH-PGE2 mimic conjugate in procedure 1. For example, the following conjugates can be substituted:
# as §2, §3
# [3] = test system: antibodies against PGE1 -BSA conjugate (Example 5); conditions: Table 1 Example 5, conjugate PGE1 -BSA, PGE1 = 100; cited from earlier work
# [4] = test system: antibodies against PGE1 -poly-1-lysine conjugate; conditions: Table 1 Example 2, conjugate PGE1 -poly-1-lysine, PGE1 = 100; cited from earlier work
# [5] = test system: antibodies against PGE1 -BSA conjugate (Example 7); conditions: Table 1 Example 7, conjugate PGE1 -BSA, PGE1 = 100; cited from earlier work
# [6] = test system: antibodies against PGE1 -BSA conjugate (Example 4); conditions: Table 1 Example 4, conjugate PGE1 -BSA, PGE1 = 100; cited from earlier work
# [7] = test system: antibodies against PGE2 -BSA conjugate (Example 1); conditions: Table II Example 1, conjugate PGE2 -BSA, PGE2 = 100; cited from earlier work
# [8] = test system: antibodies against PGE2 -BSA conjugate (Example 3); conditions: Table II Example 3, conjugate PGE2 -BSA, PGE2 = 100; cited from earlier work
# [9] = test system: antibodies against PGE1 -BSA conjugate (Example 6); conditions: Table 1 Example 6, conjugate PGE1 -BSA, PGE1 = 100; cited from earlier work
# [10] = test system: antibodies against PGE2 -hen gamma globulin conjugate; conditions: Table II Example 4, conjugate PGE2 -hen gamma globulin, PGE2 = 100; cited from earlier work
# [11] = test system: antibodies against PGE2 -BSA conjugate (Example 5); conditions: Table II Example 5, conjugate PGE2 -BSA, PGE2 = 100, cited from earlier work
# [12] = test system: antibodies against PGE1 -porcine gamma globulin conjugate; conditions: Table 1 Example 3, conjugate PGE1 -porcine gamma globulin, PGE1 = 100; cited from earlier work
# [13] = test system: antibodies against PGE2 -KLH conjugate; conditions: Table II Example 2, conjugate PGE2 -KLH, PGE2 = 100; cited from earlier work
# [14] = test system: antibodies against PGE1 -thyroglobulin conjugate; conditions: Table 1 Example 1, conjugate PGE1 -thyroglobulin, PGE1 = 100; cited from earlier work
# [15] = aqueous solution at room temperature; cited from earlier work
molecule,measurement,setting,value
CCCCC[C@H](O)/C=C/[C@@H]1[C@@H](CC(=O)CCCCC(=O)O)[C@@H](O)C[C@H]1O [6-keto-PGF1 α],% Cross-Reaction KLH Conjugate,[1],0.10%
same,% Cross-Reaction BSA Conjugate,[2],0.50%
"C=C1C[C@@H](O)[C@H](/C=C/[C@@H](O)CCCCC)[C@H]1C/C=C\CCCC(=O)O [9-deoxy-9-methylene PGF2, 9-deoxy-9-methylene-PGF2]",% Cross-Reaction KLH Conjugate,[1],100%
same,% Cross-Reaction BSA Conjugate,[2],100%
"CCCCCC(=O)CC[C@H]1[C@H](O)CC(=O)[C@@H]1C/C=C\CCCC(=O)O [13,14-dihydro-15-keto-PGE2, 13,14-dihydro-15-keto-PGE]",% Cross-Reaction KLH Conjugate,[1],0.03%
same,% Cross-Reaction BSA Conjugate,[2],0.2%
"CCCCCC(=O)CC[C@@H]1[C@@H](C/C=C\CCCC(=O)O)[C@@H](O)C[C@H]1O [13,14-dihydro-15-keto-PGF2 α]",% Cross-Reaction KLH Conjugate,[1],0.10%
same,% Cross-Reaction BSA Conjugate,[2],0.01%
"CCCCC[C@H](O)CC[C@H]1[C@H](O)CC(=O)[C@@H]1C/C=C\CCCC(=O)O [13,14-dihydro-PGE2]",% Cross-Reaction KLH Conjugate,[1],1.6%
same,% Cross-Reaction BSA Conjugate,[2],3.6%
"CCCCC[C@H](O)CC[C@@H]1[C@@H](C/C=C\CCCC(=O)O)[C@@H](O)C[C@H]1O [13,14-dihydro-PGF2 α]",% Cross-Reaction KLH Conjugate,[1],0.34%
same,% Cross-Reaction BSA Conjugate,[2],0.2%
CCCCCC(=O)/C=C/[C@H]1[C@H](O)CC(=O)[C@@H]1C/C=C\CCCC(=O)O [15-keto-PGE2],% Cross-Reaction KLH Conjugate,[1],0.03%
same,% Cross-Reaction BSA Conjugate,[2],2.5%
CCCCCC(=O)/C=C/[C@@H]1[C@@H](C/C=C\CCCC(=O)O)[C@@H](O)C[C@H]1O [15-keto-PGF2 α],% Cross-Reaction KLH Conjugate,[1],0.01%
same,% Cross-Reaction BSA Conjugate,[2],0.2%
CCCCC[C@H](O)/C=C/[C@H]1C=CC(=O)[C@@H]1CCCCCCC(=O)O [PGA1],% Cross Reaction,[3],25%
same,% Cross Reaction,[4],220%
same,% Cross-Reaction KLH Conjugate,[1],0.08%
same,% Cross Reaction,[5],6%
same,% Cross Reaction,[6],100%
same,% Cross Reaction,[7],7%
same,% Cross Reaction,[8],200%
same,% Cross-Reaction BSA Conjugate,[2],4.9%
same,% Cross Reaction,[9],"10,000%"
CCCCC[C@H](O)/C=C/[C@H]1C=CC(=O)[C@@H]1C/C=C\CCCC(=O)O [PGA2],% Cross Reaction,[10],3%
same,% Cross Reaction,[3],10%
same,% Cross Reaction,[4],440%
same,% Cross-Reaction KLH Conjugate,[1],0.75%
same,% Cross Reaction,[6],100%
same,% Cross Reaction,[7],7%
same,% Cross Reaction,[11],550%
same,% Cross Reaction,[11]; listed as A2,recognized preferentially
same,% Cross Reaction,[8],400%
same,% Cross-Reaction BSA Conjugate,[2],2.8%
same,% Cross Reaction,[9],1000%
CCCCC[C@H](O)/C=C/C1=C(CCCCCCC(=O)O)C(=O)CC1 [PGB1],% Cross Reaction,[4],"31,000%"
same,% Cross-Reaction KLH Conjugate,[1],0.005%
same,% Cross Reaction,[5],66%
same,% Cross-Reaction BSA Conjugate,[2],0.1%
same,% Cross Reaction,[12],10%
same,% Cross Reaction,[9],"100,000%"
CCCCC[C@H](O)/C=C/C1=C(C/C=C\CCCC(=O)O)C(=O)CC1 [PGB2],% Cross Reaction,[4],"8,500%"
same,% Cross-Reaction KLH Conjugate,[1],0.009%
same,% Cross Reaction,[6],100%
same,% Cross Reaction,[7],7%
same,% Cross Reaction,[11],580%
same,% Cross Reaction,[11]; listed as B2,recognized preferentially
same,% Cross-Reaction BSA Conjugate,[2],0.0%
same,% Cross Reaction,[9],"50,000%"
CCCCC[C@H](O)/C=C/[C@H]1C(=O)C[C@H](O)[C@@H]1CCCCCCC(=O)O [PGD1],% Cross-Reaction KLH Conjugate,[1],0.02%
same,% Cross-Reaction BSA Conjugate,[2],4.9%
CCCCC[C@H](O)/C=C/[C@H]1C(=O)C[C@H](O)[C@@H]1C/C=C\CCCC(=O)O [PGD2],% Cross-Reaction KLH Conjugate,[1],0.02%
same,% Cross-Reaction BSA Conjugate,[2],10.0%
CCCCC[C@H](O)/C=C/[C@H]1[C@H](O)CC(=O)[C@@H]1CCCCCCC(=O)O [PGE1],% Cross Reaction,[10],15%
same,% Cross Reaction,[3],100%
same,% Cross Reaction,[4],100%
same,% Cross-Reaction KLH Conjugate,[1],90%
same,% Cross Reaction,[5],100%
same,% Cross Reaction,[6],100%
same,% Cross Reaction,[7],10%
same,% Cross Reaction,[11],55%
same,% Cross Reaction,[8],73%
same,% Cross-Reaction BSA Conjugate,[2],100%
same,% Cross Reaction,[12],100%
same,% Cross Reaction,[9],100%
same,% Cross Reaction,[13],110%
same,% Cross Reaction,[14],100%
"CCCCC[C@H](O)/C=C/[C@H]1[C@H](O)CC(=O)[C@@H]1C/C=C\CCCC(=O)O [PGE2, prostaglandin E2]",% Cross Reaction,[10],100%
same,% Cross Reaction,[4],10%
same,% Cross Reaction,[6],100%
same,% Cross Reaction,[7],100%
same,% Cross Reaction,[11],100%
same,% Cross Reaction,[8],100%
same,% Cross Reaction,[9],90%
same,% Cross Reaction,[13],100%
same,% Cross Reaction,[14],20%
CCCCC[C@H](O)/C=C/[C@@H]1[C@@H](CCCCCCC(=O)O)[C@H](O)C[C@H]1O [PGF1 β],% Cross-Reaction KLH Conjugate,[1],0.30%
same,% Cross-Reaction BSA Conjugate,[2],5.0%
CCCCC[C@H](O)/C=C/[C@@H]1[C@@H](C/C=C\CCCC(=O)O)[C@@H](O)C[C@H]1O [PGF2 α],% Cross-Reaction KLH Conjugate,[1],0.20%
same,% Cross-Reaction BSA Conjugate,[2],1.5%
CCCCC[C@H](O)/C=C/[C@@H]1[C@@H](C/C=C\CCCC(=O)O)[C@H](O)C[C@H]1O [PGF2 β],% Cross-Reaction KLH Conjugate,[1],3.0%
same,% Cross-Reaction BSA Conjugate,[2],4.4%
CCCCC[C@H](O)/C=C/[C@@H]1[C@@H](C/C=C\CCCC(=O)O)[C@@H]2C[C@H]1OO2 [PGH2],half-life,[15],approximately five
PGB3,% Cross Reaction,[7],7%
same,% Cross Reaction,[8],62%
PGE1 α,% Cross-Reaction KLH Conjugate,[1],0.09%
same,% Cross-Reaction BSA Conjugate,[2],2.9%
